Experimental data published in the supplement of paper PMC4862054.

Legend:
Conditions in all cases: incubation time: 72 h
CAL-51 [1] = assay: drug sensitivity score (DSS), CellTox Green (DSS (AUC-based score)); higher = stronger drug effect (viability inhibition or cytotoxicity); extreme values may be limits of the assay
Summary of the method: (§1)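 The drug sensitivity score reflects the area under a fitted dose-response curve. To obtain it, breast cancer cells in 20 µl suspension were seeded into 384-well plates containing compound at 5 concentrations, 10-fold apart over a compound-specific 10,000-fold range, and incubated 72 h. CellTox Green fluorescence (485/520 nm) was read first and CellTiter-Glo luminescence second, after 10 min at room temperature. Each plate was normalised to 0.1 % DMSO and a positive kill control.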

HCC1143 [2] = assay: as above
Summary of the method: as §1

CAL-148 [3] = assay: as above
Summary of the method: as §1

CAL-120 [4] = assay: as above
Summary of the method: as §1

MDA-MB-468 [5] = assay: as above
Summary of the method: as §1

HCC1599 [6] = assay: as above
Summary of the method: as §1

CAL-85-1 [7] = assay: as above
Summary of the method: as §1

BT-549 [8] = assay: as above
Summary of the method: as §1

MCF-10A [9] = assay: as above
Summary of the method: as §1

Hs578T [10] = assay: as above
Summary of the method: as §1

MFM-223 = assay: normalised response (% of control), CellTox Green; higher = less cell death (100 = DMSO, 0 = benzethonium chloride kill control)
Summary of the method: (§2)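 Breast cancer cell lines in 20 µl suspension were added to 384-well plates containing compound at 5 concentrations, spaced in 10-fold steps across a 10,000-fold range chosen for each compound, and incubated for 72 h. CellTox Green fluorescence was read at 485/520 nm, followed by CellTiter-Glo luminescence after 10 min at room temperature. Signals on each plate were normalised so that 0.1 % DMSO equals 100 and a positive kill control equals 0. Every value in the table is the normalised signal at one concentration of the series.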

MDA-MB-231 = assay: as above
Summary of the method: as §2

DU-4475 = assay: as above
Summary of the method: as §2

CAL-51 [11] = assay: as above
Summary of the method: as §2

HCC1143 [12] = assay: as above
Summary of the method: as §2

CAL-148 [13] = assay: as above
Summary of the method: as §2

CAL-120 [14] = assay: as above
Summary of the method: as §2

MDA-MB-468 [15] = assay: as above
Summary of the method: as §2

HCC1599 [16] = assay: as above
Summary of the method: as §2

HDQ-P1 = assay: as above
Summary of the method: as §2

CAL-85-1 [17] = assay: as above
Summary of the method: as §2

BT-549 [18] = assay: as above
Summary of the method: as §2

BT-474 = assay: as above
Summary of the method: as §2

MDA-MB-436 = assay: as above
Summary of the method: as §2

MCF-10A [19] = assay: as above
Summary of the method: as §2

MDA-MB-453 = assay: as above
Summary of the method: as §2

HCC1937 = assay: as above
Summary of the method: as §2

Hs578T [20] = assay: as above
Summary of the method: as §2

SMILES	drug sensitivity score (CAL-51 [1])	drug sensitivity score (HCC1143 [2])	drug sensitivity score (CAL-148 [3])	drug sensitivity score (CAL-120 [4])	drug sensitivity score (MDA-MB-468 [5])	drug sensitivity score (HCC1599 [6])	drug sensitivity score (CAL-85-1 [7])	drug sensitivity score (BT-549 [8])	drug sensitivity score (MCF-10A [9])	drug sensitivity score (Hs578T [10])	normalised response (MFM-223)	normalised response (MDA-MB-231)	normalised response (DU-4475)	normalised response (CAL-51 [11])	normalised response (HCC1143 [12])	normalised response (CAL-148 [13])	normalised response (CAL-120 [14])	normalised response (MDA-MB-468 [15])	normalised response (HCC1599 [16])	normalised response (HDQ-P1)	normalised response (CAL-85-1 [17])	normalised response (BT-549 [18])	normalised response (BT-474)	normalised response (MDA-MB-436)	normalised response (MCF-10A [19])	normalised response (MDA-MB-453)	normalised response (HCC1937)	normalised response (Hs578T [20])
C[C@]12CC[C@@H]3c4ccc(OC(=O)N(CCCl)CCCl)cc4CC[C@H]3[C@@H]1CC[C@@H]2O [Estramustine]	6.18	0	0	0	3.38	0	0	2.52	0																			
Nc1nc2[nH]cnc2c(=S)[nH]1 [Thioguanine]	0	0	0	0	0	0	0	0	0	0																		
COc1cc2c(cc1O)CC[C@@H]1[C@@H]2CC[C@]2(C)[C@@H](O)CC[C@@H]12 [2-methoxyestradiol]	4.37	0	0	0.794	0	0	0	0.838	1.69	8.52																		
CC(C)(C)c1cnc(CSc2cnc(NC(=O)C3CCNCC3)s2)o1 [SNS-032]	15.1	0	0	0	3.58	0	20.9	7.86	16.3	17.1																		
Cn1cc(C2=Nc3cc(NC(=O)C(N)C4CCCCC4)cc4c3C2=CNNC4=O)cn1 (stereo not drawn)	11	0	0	1.7	3.14	0	12	4.35	16.2	1.58																		
CC(=O)N(O)CCCCCNC(=O)CCC(=O)N(O)CCCCCNC(=O)CCC(=O)N(O)CCCCCN [Deferoxamine]	4.29	0	7.47	0	0	0	0	0	0	0																		
Nc1ncn([C@@H]2O[C@H](CO)[C@@H](O)[C@H]2O)c(=O)n1 [Azacitidine]	0	0	0	0	0.523	0	0	0	0	0																		
CC(=O)c1c(C)c2cnc(Nc3ccc(N4CCNCC4)cn3)nc2n(C2CCCC2)c1=O [Palbociclib]	0	0		0	0	0	0	0	0	0																		
COc1cc(F)c(F)c(Nc2ccc(I)cc2F)c1NS(=O)(=O)C1(C[C@H](O)CO)CC1 [Refametinib]	0	0	0	0.239	6.47	0	12.3	0	0	0																		
O=C1CN2Cc3c(ccc(Cl)c3Cl)N=C2N1 [Anagrelide]	14.2	0		0	0	0	0	0	0	0																		
CC[C@@H]1C(=O)OC[C@@H]1Cc1cncn1C [Pilocarpine]	0	0	0	0		0	0	0	0																			
Cc1ccc([N+](=O)[O-])cc1S(=O)(=O)N(C)/N=C/c1cnc2ccc(Br)cn12 [PIK-75]	36.9	9.38	0	2.85	19.6	7.69	25.2	16.9	32.7	25.2																		
CC1(C)CNc2cc(NC(=O)c3cccnc3NCc3ccncc3)ccc21 [Motesanib]	0	0	0	0	0	0	0	0	0	0																		
CC1=C2C[C@H]3[C@@H](CC=C4C[C@@H](O)CC[C@@]43C)[C@@H]2CC[C@]12O[C@@H]1C[C@H](C)CN[C@H]1[C@H]2C [Cyclopamine]	0	2.47	0	0	0	0	0	0	0	0																		
Cc1sc2c(c1C)C(c1ccc(Cl)cc1)=N[C@@H](CC(=O)OC(C)(C)C)c1nnc(C)n1-2 [(+)JQ1]	6.31	0	6.55	1.56	8.47	0	8.47	0	0	0																		
Cn1cnc2c(F)c(Nc3ccc(Br)cc3Cl)c(C(=O)NOCCO)cc21 [Selumetinib]	0	0	0	2	6.94	0	0	0	0	0																		
CC1(C)CCC(CN2CCN(c3ccc(C(=O)NS(=O)(=O)c4ccc(NCC5CCOCC5)c([N+](=O)[O-])c4)c(Oc4cnc5[nH]ccc5c4)c3)CC2)=C(c2ccc(Cl)cc2)C1 [ABT-199]	0	0	0	0.378	13.3	0	0	1.45	0	0																		
CC(=O)O[C@@]12CO[C@@H]1C[C@H](O)[C@@]1(C)C(=O)[C@H](O)C3=C(C)[C@@H](OC(=O)[C@H](O)[C@@H](NC(=O)OC(C)(C)C)c4ccccc4)C[C@@](O)([C@@H](OC(=O)c4ccccc4)[C@H]21)C3(C)C [Docetaxel] (100 nM)											59.5%	-12.5%	95.2%	16.6%	76%	83.2%	86.7%	145%	82.8%	75.8%	19.7%	69.3%	57.1%	69%	34.9%	100%	102%	49.4%
Oc1ncnc2[nH]ncc12 [Allopurinol] (10000 nM)											94.1%	108%	98.6%	116%	117%	98%	101%	79%	102%	108%	83.4%	89.5%	104%	99.7%	102%	75.7%	76%	70.8%
Nc1nc2[nH]cnc2c(=S)[nH]1 [Thioguanine] (10000 nM)											103%	85.2%	91.9%	80.3%	106%	92.2%	97.7%	51.8%	96.2%	101%	97.4%	87%	103%	93.2%	108%	97.6%	83.7%	133%
O=NN(CCCl)C(=O)NCCCl [Carmustine] (10000 nM)											94.8%	96.9%	95.3%	100%	54.2%	98.7%	98.7%	138%	102%	91.3%	114%	84.3%	98.8%	88.9%	104%	99.4%	86.4%	100%
CC(C)(C)c1cnc(CSc2cnc(NC(=O)C3CCNCC3)s2)o1 [SNS-032] (1000 nM)											63.5%	-97.4%	86.1%	55.9%	86.3%	96.3%	88.6%	84%	71.2%	62.6%	17.1%	80.4%	90%	102%	24%	99.2%	115%	25%
CC(C)(C)c1cnc(CSc2cnc(NC(=O)C3CCNCC3)s2)o1 [SNS-032] (10000 nM)											76.7%	-26.5%	91.7%	81.1%	76.9%	91.3%	94.1%	44.3%	77.1%	68.4%	42.8%	76%	93%	94.2%	26.3%	99.2%	76.1%	41.9%
